Assay [1] deals with T1, human V2 receptor (Homo sapiens, UniProt P30518).
T1 construct: expressed in transfected cells
Description: Vasopressin 2 (V2) receptor binding (competition with 3H-vasopressin, CHO cells expressing human V2 receptor). The following applies: 0.5 nM 3H-vasopressin, CHO cell membranes, 2 hours at 22° C., pH 7.4. As to the method:
Vasopressin 2 (V2) receptor binding
For binding assays, the receptor cDNA was permanently expressed in Chinese hamster ovary (CHO) cells. CHO cells were transfected with a vector directing expression of the cDNA for the human V2 receptor and the clonal cell lines expressing human V2 receptor was established essentially as described previously (Nakajima, Y., et. al. J. Biol. Chem., 1992, 267, 2437).
DNA-transfected cells were harvested and homogenized in ice cold 250 mM sucrose buffer containing 25 mM Tris-HCl (pH 7.4), 10 mM MgCl2, 1 mM EDTA and 5 μg/ml p-amidinophenylmethylsulfonyl fluoride (A-PMSF). The homogenate was centrifuged at 500×g for 10 minutes. The supernatant was centrifuged at 100,000×g for 1 hour. The final pellet was suspended in 25 mM Tris-HCl (pH 7.4) buffer (containing 10 mM […], 1 mM EDTA and 5 μg/ml A-PMSF), and stored in small aliquots at -80° C.
Competition assays were conducted at equilibrium (2 hours at 22° C.) by using 0.5 nM ^3 H-vasopressin (40-87 Ci/mmol, New England Nuclear) in 100 mM Tris-HCl (pH 7.4) buffer (containing 5 mM MgCl2, 5 μg/ml A-PMSF, 4 μg/ml leupeptin, 40 μg/ml bacitracin, 20 μg/ml chymostatin and 0.1% bovine serum albumin). Nonspecific binding was determined by using 1 μM vasopressin. After incubation, reaction mixture was rapidly filtered through Whatman glass filter (GF/C). […] The radioactivity was counted in a liquid scintilation counter. […]

Assay [2] deals with T2, Vasopressin 1 (V1) receptor (Homo sapiens, UniProt P37288).
T2 construct: Platelet-rich plasma (PRP) was prepared by centrifugation of whole blood; from tissue; host or cells: platelet membranes from blood of normal subjects
Description: Vasopressin 1 (V1) receptor binding (competition with 3H-vasopressin, platelet membrane preparation). Conditions: 1.5 nM 3H-vasopressin, platelet membranes, 15 minutes at 30° C., pH 7.4. As to the method: Vasopressin 1 (V1) receptor binding
Blood was obtained by venipuncture from normal subjects. Platelet-rich plasma (PRP) was prepared by centrifugation of whole blood at 200×g for 10 minutes. PRP was centrifuged at 45,000×g for 30 minutes. The remaining pellet was resuspended in 10 volume of ice cold 100 mM Tris-HCl (pH 7.4) buffer (containing 5 mM MgCl2, 0.1% bovine serum albumin and 1 mM EGTA), and centrifuged at 45,000×g for 30 minutes again. The final pellet was resuspended in 100 mM Tris-HCl buffer. The resulting membrane preparation was used immediately for the binding assay.
Competition assays were conducted at equilibrium (15 minutes at 30° C.) by using 1.5 nM ^3 H-vasopressin (40-87 Ci/mmol; New England Nuclear) in 100 mM Tris-HCl (pH 7.4) buffer. Nonspecific binding was determined by using 1 μM vasopressin. After incubation, reaction was terminated by adding 5 ml of ice-cold 100 mM Tris-HCl (pH 7.4) buffer, and then filtered rapidly through Whatman glass filter (GF/C). The filter was washed twice with the same buffer. The glass filter was mixed with liquid scintilation cocktail, and radioactivity was counted in a liquid scintilation counter. Competition activity of the test compound was represented by IC50 values.

T1 sequence (P30518 whole entry): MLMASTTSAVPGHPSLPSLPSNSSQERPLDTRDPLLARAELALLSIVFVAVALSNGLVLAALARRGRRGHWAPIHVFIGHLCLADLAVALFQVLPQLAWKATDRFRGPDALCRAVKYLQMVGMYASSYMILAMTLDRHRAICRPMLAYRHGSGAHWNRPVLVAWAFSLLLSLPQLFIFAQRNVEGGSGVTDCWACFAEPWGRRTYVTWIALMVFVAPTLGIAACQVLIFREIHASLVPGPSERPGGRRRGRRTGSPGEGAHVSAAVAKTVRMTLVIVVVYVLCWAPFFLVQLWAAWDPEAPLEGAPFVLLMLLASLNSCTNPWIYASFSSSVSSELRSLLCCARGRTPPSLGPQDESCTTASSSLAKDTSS
T2 sequence (P37288 whole entry): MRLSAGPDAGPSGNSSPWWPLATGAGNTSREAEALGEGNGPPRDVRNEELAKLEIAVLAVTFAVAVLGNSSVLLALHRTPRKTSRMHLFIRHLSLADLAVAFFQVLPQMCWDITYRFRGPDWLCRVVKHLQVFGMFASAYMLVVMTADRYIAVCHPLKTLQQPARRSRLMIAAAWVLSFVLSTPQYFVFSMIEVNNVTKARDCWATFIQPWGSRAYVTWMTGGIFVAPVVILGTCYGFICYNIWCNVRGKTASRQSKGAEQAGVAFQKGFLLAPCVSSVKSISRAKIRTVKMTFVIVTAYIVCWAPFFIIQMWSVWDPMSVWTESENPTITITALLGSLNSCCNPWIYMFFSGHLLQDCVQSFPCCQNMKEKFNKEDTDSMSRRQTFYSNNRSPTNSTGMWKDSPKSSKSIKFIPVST

In the case of `Cc1ccc(-c2ccccc2C(=O)Nc2ccc(C(=O)N(C)c3ccccc3OCc3ccc(C(=O)N4CCN(C)CC4)cc3)cc2)cc1` [27-36)], the IC50 in assay [1] amounted to 3 nM.

For `Cc1ccc(N(C)C(=O)c2ccc(NC(=O)c3ccccc3C)cc2)c(OCCCCCC(=O)N2CCN(C)CC2)c1` [27-58), 4-(Methylphenyl-2-carboxamido)-N-methyl-N-[4-methyl-2-[5-(4-methylpiperazin-1-yl)carbonylpent-1-yloxy]phenyl]benzamide], the IC50 in assay [2] turned out to be 4.4 nM. `Cc1ccc(-c2ccccc2C(=O)Nc2ccc(C(=O)N(C)c3ccccc3OCCN(C)CCC(=O)N3CCN(C)CC3)cc2)cc1` [71-1)] registered an IC50 in assay [1] of 4.4 nM.

These data come from patent US6211242A, “Benzamide derivatives as vasopressin antagonists” (Fujisawa Pharmaceutical Co., Ltd., priority 1994, dated 2001).
